Assay results published in patent US11058718B2, “Method for treating non-alcoholic steatohepatitis (NASH) with the combination of polaprezinc and sodium selenite” (Medico Consl Co., Ltd., priority 2019, dated 2021).

Experiments:
[1] = test system: NASH model mice (STAM mouse); test: NASH model (STAM) mice, oral administration once a day for 28 days; liver tissue images, liver weight, serum and hepatic markers, NAS; type: in vivo; set-up: TNF-alpha, Score showing the degree of inflammation / IFN-gamma, Score showing the degree of inflammation: scale not given here; conditions: for serum ferritin level: oral 28 days (FIG. 7); for TNF-alpha, Score showing the degree of inflammation: oral 28 days (FIG. 11); for IFN-gamma, Score showing the degree of inflammation: oral 28 days (FIG. 12); for hepatic fibrosis area ratio: oral 28 days (FIG. 13); for weight ratio of liver to body / serum ALT level / hepatic TG (hepatic triglyceride) / MCP-1 (monocyte chemotactic protein-1) / NAS (NAFLD activity score) improvement, in words / NAS (NAFLD activity score) / hepatic ballooning score / lobular inflammation score / steatosis score: oral 28 days; for weight ratio of liver to body: after administration (FIG. 5); for serum ALT level: after administration (FIG. 6); for hepatic TG (hepatic triglyceride): after administration (FIG. 9); for MCP-1 (monocyte chemotactic protein-1): after administration (FIG. 10); for NAS (NAFLD activity score) improvement, in words: comparison between groups; for NAS (NAFLD activity score): full score of 8 (FIG. 17); for hepatic ballooning score: score of 0 to 2 (FIG. 14); for lobular inflammation score: score of 0 to 3 (FIG. 15); for steatosis score: score of 0 to 3 (FIG. 16); for liver weight: oral once a day, 28 days, polaprezinc 45.2 mg/kg, sodium selenite 150 μg/kg, after administration (FIG. 4)
Experimental: An internationally prized and recognized STAM (registered trademark) mouse was used for the research model of non-alcoholic fatty liver disease (NAFLD) and/or non-alcoholic steatohepatitis (NASH). A STAM (registered trademark) mouse is an animal model of non-alcoholic steatohepatitis prepared by administrating inflammation inducer of the pancreas (patent literature 2) which Stelic Institute & Co. developed and is publically informed as patentee, and many research reports using this animal model has already been made domestic and overseas.
The NASH model mice were assigned to four groups (eight mice per group) by body weight stratification random sampling method so that the average body weight is equal. The four groups are the zinc preparation (polaprezinc)+selenium preparation (sodium selenite) group, zinc preparation (polaprezinc) alone group, selenium preparation (sodium selenite) alone group, and control group. The route of administration was oral administration, and the period of administration was 28 days.
The number of administration was once a day. The dosage was 10 ml/kg body weight and was administrated using an oral zonde.
The dosages of each group are shown below.
Blood was collected from the heart under ether anesthesia at the end of administration. The obtained serum was divisionally injected into a tube. It was euthanized by exsanguination after blood sampling and the photograph of the extracted liver was taken. For all necropsied animals, treatment was made to divide the liver into four respective lobes (right/left medial lobe, left lateral lobe, right lobe, caudate lobe), wherein especially the left lateral lobe was treated for three parts taking two each of its six equally divided parts, and the tissue image was analyzed.
The evaluation for non-alcoholic fatty liver disease (NAFLD) and/or non-alcoholic steatohepatitis (NASH) improvement was evaluated by the following items.
NAS (NAFLD activity score) is used to evaluate non-alcoholic fatty liver disease (NAFLD). NAS is advocated by Nonalcoholic⋅Steato⋅hepatitis⋅Clinical⋅Research⋅Network (nonpatent literature 2). […] The activity of NAS is evaluated by putting the three of steatosis, lobular inflammation, and Ballooning degeneration into scores. It is shown in full score of 8 in total, score of 0 to 3 for steatosis and lobular inflammation, and score of 0 to 2 for hepatic Ballooning degeneration. Steatosis, lobular inflammation, hepatic Ballooning degeneration, and NAS (NAFLD activity score) was compared and examined for the four groups, the group of the combination drug of zinc preparation (polaprezinc) and selenium preparation (sodium selenite), the control group, the zinc preparation (polaprezinc) alone group, and the selenium preparation (sodium selenite) alone group.

hepatic fibrosis = conditions: from patent literature 1, nonpatent literature 3 and 5; cited from earlier work

| Structure (SMILES) | F4/80 (macrophage) antigen expression level in stained liver tissue ([1]; oral 28 days (FIG. 2-1, 2-2)) | serum ferritin level [1] | TNF-alpha, Score showing the degree of inflammation [1] | IFN-gamma, Score showing the degree of inflammation [1] | hepatic fibrosis area ratio [1] | weight ratio of liver to body [1] | serum ALT level [1] | hepatic TG (hepatic triglyceride) [1] | MCP-1 (monocyte chemotactic protein-1) [1] | NAS (NAFLD activity score) improvement, in words [1] | NAS (NAFLD activity score) improvement, in words ([1]; listed as Zinc preparation (polaprezinc)) | NAS (NAFLD activity score) [1] | hepatic ballooning score [1] | lobular inflammation score [1] | steatosis score [1] | liver weight [1] | suppression of hepatic fibrosis (prior reports) (hepatic fibrosis) |
| --- | --- | --- | --- | --- | --- | --- | --- | --- | --- | --- | --- | --- | --- | --- | --- | --- | --- |
| NCCC(=O)[N-][C@@H](Cc1c[nH]cn1)C(=O)[O-].[Zn+2] [zinc preparation (polaprezinc), L-carnosine zinc salt] | suppresses the expression level significantly compared with the control | 5,740 ng/ml | 12.80 | 7.95 | 1.16% | 7.49% | 58.8 IU/L | 64.2 mg/dL | 3.3 | significantly declined NAS (NAFLD activity score) compared with the control group | showed improvement compared to the control group | 3.62 | 1.38 | 1.38 | 0.85 | 1,389 mg | suppresses hepatic fibrosis |
| O=[Se](O)O [selenium preparation (sodium selenite), sodium selenite] | – | 5,251 ng/ml | 13.23 | 8.02 | 1.18% | 7.43% | 54.6 IU/L | 57.3 mg/dL | 3.2 | – | – | 3.54 | 1.23 | 1.46 | 0.85 | 1,385.2 mg | – |
